Data from article PMC3214660 (Cancer prevention research (Philadelphia, Pa.), 2011).

How the values were obtained:
[1] = tested on: COX-2 in RAW264.7 cells; assay type: cell-based, murine
[2] = Tissue analysis for defluorination in rat footpads; assay type: in vivo, Sprague-Dawley rats; conditions: compound 7 1 mg/kg i.p., 2 hours post dosing
[3] = target: T1, mCOX-2 (Mus musculus, UniProt Q05769); test: Enzyme-inhibitor binding kinetics, time-dependent inhibition of purified mCOX-2; assay type: biochemical; conditions: mCOX-2, time-dependent inhibition
T1 sequence (Q05769 18-604): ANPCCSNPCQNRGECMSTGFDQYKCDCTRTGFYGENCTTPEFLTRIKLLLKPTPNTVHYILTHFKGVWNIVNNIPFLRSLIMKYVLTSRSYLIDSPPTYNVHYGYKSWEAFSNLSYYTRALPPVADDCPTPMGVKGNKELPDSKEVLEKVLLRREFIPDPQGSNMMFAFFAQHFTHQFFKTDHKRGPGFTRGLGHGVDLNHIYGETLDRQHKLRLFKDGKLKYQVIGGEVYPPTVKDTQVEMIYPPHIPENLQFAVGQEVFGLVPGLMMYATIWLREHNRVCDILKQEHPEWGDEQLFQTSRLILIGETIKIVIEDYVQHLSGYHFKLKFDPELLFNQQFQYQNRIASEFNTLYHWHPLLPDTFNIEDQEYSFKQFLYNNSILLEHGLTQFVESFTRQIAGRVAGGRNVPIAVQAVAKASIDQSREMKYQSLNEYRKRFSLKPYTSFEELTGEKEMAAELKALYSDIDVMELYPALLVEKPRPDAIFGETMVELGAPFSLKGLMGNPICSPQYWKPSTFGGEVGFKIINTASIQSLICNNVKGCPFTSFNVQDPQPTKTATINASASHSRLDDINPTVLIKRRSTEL

Structure (SMILES)	Inhibition of COX-2 in intact RAW264.7 cells, in words ([1]; activated RAW264.7 cells, prostaglandin production)	calculated extent of defluorination ([2]; rat footpad, n = 3) [%]	amount in inflamed footpad ([2]; rat, LC-MS) [pmol/g tissue]	dissociation rate k−2 [3] [s⁻¹]	inactivation rate k2 [3] [s⁻¹]	KI, equilibrium constant for initial association (k−1/k1) ([3]; 37 °C) [nM]	IC50 ([1]; Mus musculus, RAW264.7, 0.5 h, read-out: RAW246.7 Cells IC50 COX-2) [nM]
Cc1ccc(-c2cc(CF)nn2-c2ccc(S(N)(=O)=O)cc2)cc1 [Compound 7]	low nanomolar range	8.8 ± 5.0	486.3	0.0003	0.035	7300 ± 1600	–
COc1ccc2c(c1)c(CC(=O)O)c(C)n2C(=O)c1ccc(Cl)cc1 [Indomethacin, reference compound]	–	–	–	–	–	–	10
